Laboratory results from publication PMC5584945, “Evaluation of robenidine analog NCL195 as a novel broad-spectrum antibacterial agent” (PLoS ONE, 2017).
Converted amounts (≈) assume the structure as drawn. “Also recorded” adds a separate entry of the source. Where two headings read alike, the source gives them in different places.

Experiments:
[1] = Kinetic solubility by nephelometry; format: physicochemical; details: kinetic from dmso stock
[2] = test system: Hep G2; assay: In vitro cytotoxicity, WST-1; format: cell-based; details: Homo sapiens, HepG2; 24 h exposure; read-out: IC50 values ± SEM
[3] = test system: HEL 299; assay: In vitro cytotoxicity, WST-1; format: cell-based; details: Homo sapiens, 24 h exposure, read-out: IC50 values ± SEM
[4] = Pharmacokinetics after IV administration; format: in vivo, mouse; details: for clearance: read-out: Plasma CL; for half-life: read-out: Apparent t½ (converted); for Vd: read-out: Plasma VSS
Procedure: (§1) Mice had access to food and water ad libitum throughout the pre- and post-dose sampling period. The Animal Ethics Committee of the Monash Institute of Pharmaceutical Sciences reviewed and approved all animal PK experiments (approval number MIPS.2013.33). The PK studies were conducted in compliance with the Australian Code of Practice for the Care and Use of Animals for Scientific Purposes (7th Edition 2004). […] For both the IV and IP administration, a maximum of two samples were obtained from each mouse, with samples being taken either via submandibular bleed (approximately 120 μl; conscious sampling) or terminal cardiac puncture (0.6 ml; under inhaled Isoflurane anesthesia). No urine samples were collected as mice were housed in bedded cages during the study. […] Mice were humanely sacrificed by cervical dislocation while under anaesthesia (using gaseous isoflurane) at the end of experiments. Blood was collected directly into polypropylene Eppendorf tubes containing heparin as anti-coagulant, and stabilization cocktail (containing Complete (a protease inhibitor cocktail with EDTA) and potassium fluoride) to minimize the potential for ex vivo degradation of the test compounds in blood/plasma samples. Once collected, blood samples were centrifuged immediately, supernatant plasma was removed, and stored at either -80°C (for the IV exposure) or at -20°C (for the IP exposure) until analysis by liquid chromatography-mass spectrometry (LC-MS). Following protein precipitation with acetonitrile, thawed plasma samples were analyzed by LC-MS (Waters Micromass Quattro Premier coupled to a Waters Acquity UPLC) using positive electrospray ionization operating in MRM mode.

[5] = Pharmacokinetics after IP administration; format: in vivo, mouse; details: mice, IP 43 mg/kg
Procedure: as §1

[6] = test system: S. pneumoniae D39; assay: Time-dependent killing assay; format: cell-based, Streptococcus pneumoniae
Procedure: Time kill assays were performed (in duplicate) essentially as described previously with slight modifications. Briefly, a few colonies of luminescent S. pneumoniae strain D39LUX or luminescent S. aureus ATCC 12600 (Xen29) from an overnight HBA were emulsified in normal saline and adjusted to A600 nm = 0.10 (equivalent to approx. 5 × 10^7 c.f.u. per ml) and the bacterial suspension further diluted 1:20 in saline. […] The compounds were serially diluted in 100% DMSO at 100× the final desired concentration and 100 μl of appropriate concentrations added to each 10 ml preparation. Duplicate cultures were incubated at 37°C (+ 5% CO2 for S. pneumoniae D39), with samples withdrawn at 0, 0.5, 1, 2, 4, 6, 8 and 24 h, serially diluted 10-fold and plated on HBA overnight at 37°C (+ 5% CO2 for S. pneumoniae D39) for bacterial enumeration.

[7] = test system: Neisseria meningitidis; assay: Activity against Neisseria meningitidis; format: cell-based
Procedure: (§2) MICs for NCL812 and its analogs (serial two-fold dilutions commencing at 128 μg/ml) were determined (in duplicate) in round bottom 96-well microtitre trays (Sarstedt 82.1582.001), using the broth micro-dilution method recommended by the Clinical and Laboratory Standards Institute (CLSI). […] MIC50, MIC90 and MIC range for NCL812, NCL195 and NCL219 were calculated against each S. pneumoniae, S. aureus or VRE isolate. To assess the potential activity of NCL195 against Gram-negative bacteria, MICs against Acinetobacter spp, E. coli, K. pneumoniae, P. aeruginosa, Proteus spp and Neisseria meningitidis were performed in the presence or absence of 0.08 mM-20 mM EDTA in a standard checkerboard assay.

[8] = test system: S. aureus Xen29; assay: Point of resistance assay (serial passage)
[9] = test system: P. aeruginosa; assay: MIC alone and checkerboard with EDTA or polymyxin B; format: cell-based; details: for MIC: Pseudomonas aeruginosa, read-out: MIC, agent alone
Procedure: as §2

[10] = test system: A. baumannii; assay: as above; format: cell-based; details: for MIC: Acinetobacter baumannii
Procedure: as §2

[11] = test system: E. coli; assay: as above; format: cell-based; details: for MIC: Escherichia coli, read-out: MIC, agent alone
Procedure: as §2

[12] = test system: K. pneumoniae; assay: as above; format: cell-based; details: for MIC of NCL195 in combination with EDTA: with EDTA 10 mM; for MIC: Klebsiella pneumoniae, read-out: MIC, agent alone
Procedure: as §2

[13] = male, Swiss (outbred), mouse, plasma, iv, 5 mg/kg, male Swiss outbred mice, read-out: AUC0-inf
[14] = male, Swiss (outbred), mouse, plasma, iv, 5 mg/kg, male Swiss outbred mice
[15] = mouse, plasma, male Swiss outbred mice, IV 5 mg/kg
[16] = male Swiss outbred mice, IV 5 mg/kg, 5 mg/kg

## C/C(=N\NC(=N)N/N=C(\C)c1ccc(C(C)(C)C)cc1)c1ccc(C(C)(C)C)cc1 [NCL219, (E)-N'-((E)-1-(4-(tert-butyl)phenyl)ethylidene)-2-(1-(4-(tert-butyl)phenyl)ethylidene)hydrazine-1-carboximidhydrazide]
[1]; pH 2.0
  solubility: 0.78 to 1.6 µg/mL (≈ 1.92 to 3.94 µM)
[1]; pH 6.5
  solubility: 0.78 to 1.6 µg/mL (≈ 1.92 to 3.94 µM)
[2]
  IC50: 7.1 ± 0.1 µg/mL (≈ 17.5 µM)
[3]
  IC50: 21.2 ± 0.2 µg/mL (≈ 52.3 µM)

## Cc1ccc(/C=N/Nc2cc(N/N=C/c3ccc(C)cc3)nc(N)n2)cc1 [NCL195, 4,6-bis(2-((E)-4-methylbenzylidene)hydrazinyl)pyrimidin-2-amine]
[1]; pH 2.0
  solubility: 3.1 to 6.3 µg/mL (≈ 8.62 to 17.5 µM)
[1]; pH 6.5
  solubility: < 1.6 µg/mL
[4]; [13]
  AUC(0-inf): 12.5 µM·h
[4]; [14]
  clearance: 16.3 mL/min/kg
[4]; [15]
  half-life: 2.4 h
  Vd: 2.6 L/kg
[5]
  Adverse reactions after IP administration: No adverse reactions or compound-related side effects were observed
[5]; between 7.5 and 24 h post-dose
  Plasma concentration: 200 to 500 ng/mL
[5]; initial 7.5 h post-dose
  Plasma concentration: 3000 to 4000 ng/mL
[6]; 2× MIC
  Time to reduce the population below the limit of detection: 6 h
[6]; 4× MIC
  Time to reduce the population below the limit of detection: 4 h
[2]
  IC50: 12 ± 0.1 µg/mL (≈ 33.4 µM)
[3]
  IC50: 10.9 ± 0.2 µg/mL (≈ 30.3 µM)
[7]
  Activity against Neisseria meningitidis: bactericidal
[8]; 10^5 c.f.u. Xen29 in broth with 1×, 2× and 4× MIC
  MIC of colonies that grew after 72 h in the presence of NCL195: 1 × MIC
[8]; 24 daily sequential cultures
  Resistance (fold MIC) over serial passage: ≤ 1 × MIC
[9]; P. aeruginosa ATCC 27853, with EDTA 5 mM
  MIC of NCL195 in combination with EDTA: 2 µg/mL
[9]; P. aeruginosa ATCC 27853
  MIC of NCL195 in combination with polymyxin B: 1 µg/mL
[9]; P. aeruginosa PA01, with EDTA […]
  MIC of NCL195 in combination with EDTA: 0.25 µg/mL
[9]; P. aeruginosa PA01
  MIC of NCL195 in combination with polymyxin B: 1 µg/mL
  MIC: > 128 µg/mL
[9]; ATCC27853, P. aeruginosa ATCC 27853
  MIC: > 128 µg/mL
[10]; A. baumannii ATCC 12457, with EDTA 0.25 mM
  MIC of NCL195 in combination with EDTA: 4 µg/mL
[10]; A. baumannii ATCC 12457
  MIC of NCL195 in combination with polymyxin B: 0.5 µg/mL
[10]; A. baumannii ATCC 19606, with EDTA 0.5 mM
  MIC of NCL195 in combination with EDTA: 2 µg/mL
[10]; A. baumannii ATCC 19606
  MIC of NCL195 in combination with polymyxin B: 0.5 µg/mL
[10]; ATCC12457, A. baumannii ATCC 12457, read-out: MIC, agent alone
  MIC: > 128 µg/mL
[10]; ATCC19606, A. baumannii ATCC 19606, read-out: MIC, agent alone
  MIC: > 128 µg/mL
[10]; A. baumannii isolates without strain name (one table line per isolate), read-out: MIC
  MIC: > 128 µg/mL
[11]; E. coli ATCC 11229, with EDTA 0.625 mM
  MIC of NCL195 in combination with EDTA: 8 µg/mL
[11]; E. coli ATCC 11229
  MIC of NCL195 in combination with polymyxin B: 0.25 µg/mL
[11]; E. coli ATCC 25922, with EDTA 2.5 mM
  MIC of NCL195 in combination with EDTA: 4 µg/mL
[11]; E. coli ATCC 25922
  MIC of NCL195 in combination with polymyxin B: 0.25 µg/mL
[11]; ATCC11229, E. coli ATCC 11229
  MIC: > 128 µg/mL
[11]; ATCC25922, E. coli ATCC 25922
  MIC: > 128 µg/mL
[12]; K. pneumoniae ATCC 4352
  MIC of NCL195 in combination with EDTA: 4 µg/mL
  MIC of NCL195 in combination with polymyxin B: 0.5 µg/mL
[12]; K. pneumoniae ATCC 33495
  MIC of NCL195 in combination with EDTA: 4 µg/mL
  MIC of NCL195 in combination with polymyxin B: 0.25 µg/mL
[12]; ATCC4352, K. pneumoniae ATCC 4352
  MIC: > 128 µg/mL
[12]; ATCC33495, K. pneumoniae ATCC 33495
  MIC: > 128 µg/mL

## Cl.N=C(NN=Cc1ccc(Cl)cc1)NN=Cc1ccc(Cl)cc1 [NCL812, 2,2'-bis[(4-chlorophenyl)methylene] carbonimidic dihydrazide hydrochloride]
[1]; pH 2.0
  solubility: 6.3 to 12.5 µg/mL
[1]; pH 6.5
  solubility: < 1.6 µg/mL
[4]; [16]
  AUC(0-inf): ~27.9^ a h*μM
  Plasma CL: ~9.5^ a mL/min/kg
[4]; [13]
  AUC(0-inf): 27.9 µM·h
[4]; [14]
  clearance: 9.5 mL/min/kg
[4]; mice, IV 5 mg/kg, 5 mg/kg
  Adverse signs after parenteral (IV) administration: adverse neurological signs; also recorded: adverse clinical signs
[4]; [15]
  half-life: ~8.2 h
  Vd: ~5.9 L/kg
[2]
  IC50: 9.4 ± 0.1 µg/mL
[3]
  IC50: 4.6 ± 0.1 µg/mL

## CC1(C)S[C@@H]2[C@H](NC(=O)[C@H](N)c3ccccc3)C(=O)N2[C@H]1C(=O)O [Ampicillin]
[6]; 4× MIC
  Time to reduce the population below the limit of detection: 8 h

## CCCCCCCCCC(=O)N[C@@H](Cc1c[nH]c2ccccc12)C(=O)N[C@H](CC(N)=O)C(=O)N[C@@H](CC(=O)O)C(=O)N[C@@H]1C(=O)NCC(=O)N[C@@H](CCCN)C(=O)N[C@@H](CC(=O)O)C(=O)N[C@H](C)C(=O)N[C@@H](CC(=O)O)C(=O)NCC(=O)N[C@H](CO)C(=O)N[C@@H]([C@H](C)CC(=O)O)C(=O)N[C@@H](CC(=O)c2ccccc2N)C(=O)O[C@@H]1C [Daptomycin, daptomycin]
[8]; by day 12 of the serial passage
  Resistance (fold MIC) over serial passage: 8 ×MIC
[8]; daily serial passage
  Day of serial passage by which resistance developed: 5 days
